The results in this text go back to patent publication US20240174634A1, “Aldehyde Dehydrogenase Inhibitors and Their Therapeutic Use” (priority 2020, published 2024).

This test addresses T1, ALDH2 (Homo sapiens, UniProt P05091).
T1 sequence (P05091 18-517): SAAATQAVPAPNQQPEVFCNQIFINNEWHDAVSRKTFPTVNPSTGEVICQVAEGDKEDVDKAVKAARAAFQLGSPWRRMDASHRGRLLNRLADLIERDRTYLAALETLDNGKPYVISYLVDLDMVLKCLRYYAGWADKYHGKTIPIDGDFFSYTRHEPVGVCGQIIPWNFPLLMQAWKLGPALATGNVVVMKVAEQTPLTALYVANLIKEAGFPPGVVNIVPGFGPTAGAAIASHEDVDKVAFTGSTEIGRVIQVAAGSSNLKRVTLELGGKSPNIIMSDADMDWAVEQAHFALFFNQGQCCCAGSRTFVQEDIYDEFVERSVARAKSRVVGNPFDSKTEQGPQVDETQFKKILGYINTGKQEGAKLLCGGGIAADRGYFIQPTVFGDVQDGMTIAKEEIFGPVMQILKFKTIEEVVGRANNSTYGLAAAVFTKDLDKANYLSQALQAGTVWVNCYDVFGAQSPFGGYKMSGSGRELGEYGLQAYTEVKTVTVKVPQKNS
Put plainly: Selectivity biochemical assay, NAD(P)H-Glo Detection System. The procedure:
Materials: ALDH2 was purchased from Abnova. Tris(hydroxymethyl)aminomethane (Tris) was purchased from MP Biomedicals. TCEP, ethylenediaminetetraacetic acid (EDTA), propionaldehyde, DMSO and Tween-20 were purchased from Sigma. Nicotinamide adenine dinucleotide (NAD) was obtained from Abcam. The NAD(P)H-Glo™ Detection System was purchased from Promega. White, non-binding surface, 384 well plates were supplied by Corning (#3574).
Method: Inhibition of ALDH1A3 was assessed using the NAD(P)H-Glo™ Detection System (Cat. No. G9062) from Promega. This assay detects the production of NADH from NAD by ALDH1A3 via the coupled enzymatic conversion of a proluciferin reductase substrate to generate a luminescent signal. Inhibition of ALDH1A3 by small molecule inhibitors will result in reduction or abrogation of luminescence signal increase above background. Inhibition of ALDH1A1, ALDH1A2 and ALDH2 (selectivity assays) were assessed using the same assay.
Compounds were dosed into Corning 384 well assay plates using an Echo acoustic dispenser to give 10 point curves in a 3-fold dilution series. Compounds were dispensed from a 20 mM DMSO stock and initially screened at a top concentration of 20 μM (ALDH1A3) or 250 μM (ALDH1A1, ALDH1A2 & ALDH2). Enzyme was added to the plate in a 5 μL volume, according to the final concentrations in table 1 below, and pre-incubated with compound for 30 minutes at room temperature before the addition of 5 μL of the substrate (propionaldehyde) and cofactor (NAD), to effect final concentrations equal to the Km as shown in Table 1. The assay buffer used consisted of 40 mM Tris for 1A1 (pH 7.6), 1A2 (pH 7.6) and 1A3 (pH 9.0) and 10 mM Tris for ALDH2 (pH 8.0) supplemented with 1 mM TCEP, 0.01% Tween-20, 0.1 mM EDTA. The reaction mix was incubated at 26° C. on a shaking incubator for 30 minutes before being stopped by the addition of 10 μL of the Promega detection reagent and 100×IC50 of inhibitors of the respective isoforms. After stopping the reaction the plate was incubated for 60 minutes at room temperature and the luminescence signal read on a PheraStar FS microplate reader (BMG Labtech) and resulting IC50 values were calculated using Dotmatics software.
Enzyme, substrate and cofactor concentrations were selected to ensure the reaction ran under initial velocity conditions.
By IC50 is commonly meant the concentration at which inhibition is half-maximal. Read a low IC50 as greater potency. `O=C1CCc2cc(OCCN3CC(O)CC3c3cccc(F)c3)ccc2N1` (mixture of isomers) [ALDHI-2035, 6-[2-[2-(3-fluorophenyl)-4-hydroxy-pyrrolidin-1-yl]ethoxy]-3,4-dihydro-1H-quinolin-2-one]: the IC50 was at least 100 µM.
Compound `CC1CN(CCOc2ccc3c(c2)CCC(=O)N3)C(c2ccccc2)CO1` (mixture of isomers) [ALDHI-2042, 6-[2-(2-methyl-5-phenyl-morpholin-4-yl)ethoxy]-3,4-dihydro-1H-quinolin-2-one] registered an IC50 of at least 100 µM.
The figure for `O=C1CCc2cc(NC(=O)c3sc(N4CCOCC4)nc3-c3cccc(F)c3)ccc2N1` [ALDHI-1001, 4-(3-fluorophenyl)-2-morpholino-N-(2-oxo-3,4-dihydro-1H-quinolin-6-yl)thiazole-5-carboxamide] is at least 100 µM.
Compound `CN(C)c1nc(-c2cccc(F)c2)c(C(=O)Nc2ccc3c(c2)CCC(=O)N3)s1` [ALDHI-1002, 2-(dimethylamino)-4-(3-fluorophenyl)-N-(2-oxo-3,4-dihydro-1H-quinolin-6-yl)thiazole-5-carboxamide] yielded an IC50 of at least 100 µM.
In the case of `O=C1CCc2cc(NC(=O)c3sc(N4CC(O)C4)nc3-c3cccc(F)c3)ccc2N1` [ALDHI-1004, 4-(3-fluorophenyl)-2-(3-hydroxyazetidin-1-yl)-N-(2-oxo-3,4-dihydro-1H-quinolin-6-yl)thiazole-5-carboxamide], the IC50 is at least 100 µM.
Turning to `O=C1CCc2cc(NC(=O)c3sc(N4CCNCC4)nc3-c3cccc(F)c3)ccc2N1` [ALDHI-1005, 4-(3-fluorophenyl)-N-(2-oxo-3,4-dihydro-1H-quinolin-6-yl)-2-piperazin-1-yl-thiazole-5-carboxamide], the half-inhibitory concentration (IC50) was at least 100 µM.
On to `O=C1CCc2cc(NC(=O)c3c[nH]nc3-c3cccc(F)c3)ccc2N1` [ALDHI-1006, 3-(3-fluorophenyl)-N-(2-oxo-1,2,3,4-tetrahydroquinolin-6-yl)-1H-pyrazole-4-carboxamide], for which the half-inhibitory concentration (IC50) was in the range of 10 to 100 µM.
In turn, `O=C1CCc2cc(NC(=O)c3ccccc3-c3cccc(F)c3)ccc2N1` [ALDHI-1007, 3′-fluoro-N-(2-oxo-1,2,3,4-tetrahydroquinolin-6-yl)-[1,1′-biphenyl]-2-carboxamide] returned a half-inhibitory concentration (IC50) of at least 100 µM.
The figure for `Cc1noc(-c2ccccc2C(=O)Nc2ccc3c(c2)CCC(=O)N3)n1` [ALDHI-1008, 2-(3-methyl-1,2,4-oxadiazol-5-yl)-N-(2-oxo-1,2,3,4-tetrahydroquinolin-6-yl)benzamide] is at least 100 µM.
The figure for `O=C1CCc2cc(NC(=O)c3ncsc3-c3cccnc3)ccc2N1` [ALDHI-1010, N-(2-oxo-3,4-dihydro-1H-quinolin-6-yl)-5-(3-pyridyl)thiazole-4-carboxamide] is at least 100 µM.
For the compound `O=C1CCc2cc(NC(=O)c3ncsc3-c3ccsc3)ccc2N1` [ALDHI-1011, N-(2-oxo-3,4-dihydro-1H-quinolin-6-yl)-5-(3-thienyl)thiazole-4-carboxamide], the 50% inhibitory concentration (IC50) was at least 100 µM.
The compound `O=C1CCc2cc(NC(=O)c3scnc3-c3ccccc3Cl)ccc2N1` [ALDHI-1012, 4-(2-chlorophenyl)-N-(2-oxo-3,4-dihydro-1H-quinolin-6-yl)thiazole-5-carboxamide] came in with an IC50 of at least 100 µM.
The figure for `Cc1cccc(-c2ncsc2C(=O)Nc2ccc3c(c2)CCC(=O)N3)c1` [ALDHI-1013, 4-(m-tolyl)-N-(2-oxo-3,4-dihydro-1H-quinolin-6-yl)thiazole-5-carboxamide] is at least 100 µM; for `O=C1CCc2cc(NC(=O)c3ncsc3-c3cccc(F)c3)ccc2N1` [ALDHI-1014, 5-(3-fluorophenyl)-N-(2-oxo-3,4-dihydro-1H-quinolin-6-yl)thiazole-4-carboxamide] it is at least 100 µM.
The figure for `O=C1COc2cc(NC(=O)c3scnc3-c3cccc(F)c3)ccc2N1` [ALDHI-1016, 4-(3-fluorophenyl)-N-(3-oxo-4H-1,4-benzoxazin-7-yl)thiazole-5-carboxamide] is at least 100 µM.
In turn, `O=C1CCc2cc(NC(=O)c3scnc3-c3ccc(F)cc3)ccc2N1` [ALDHI-1017, 4-(4-fluorophenyl)-N-(2-oxo-1,2,3,4-tetrahydroquinolin-6-yl)thiazole-5-carboxamide] returned an IC50 of at least 100 µM.
The figure for `O=C1CCc2cc(NC(=O)c3cncnc3-c3cccc(F)c3)ccc2N1` [ALDHI-1018, 4-(3-fluorophenyl)-N-(2-oxo-3,4-dihydro-1H-quinolin-6-yl)pyrimidine-5-carboxamide] is at least 100 µM; for `O=C1CCc2cc(NC(=O)c3ocnc3-c3cccc(F)c3)ccc2N1` [ALDHI-1019, 4-(3-fluorophenyl)-N-(2-oxo-3,4-dihydro-1H-quinolin-6-yl)oxazole-5-carboxamide] it is at least 100 µM; for `O=C1CCc2cc(NC(=O)c3scnc3-c3ccccc3F)ccc2N1` [ALDHI-1021, 4-(2-fluorophenyl)-N-(2-oxo-3,4-dihydro-1H-quinolin-6-yl)thiazole-5-carboxamide] it is at least 100 µM.
The figure for `O=C1CCc2cc(NC(=O)c3sccc3-c3cccc(F)c3)ccc2N1` [ALDHI-1022, 3-(3-fluorophenyl)-N-(2-oxo-3,4-dihydro-1H-quinolin-6-yl)thiophene-2-carboxamide] is at least 100 µM; for `O=C1CCc2cc(NC(=O)c3scnc3-c3cccs3)ccc2N1` [ALDHI-1023, N-(2-oxo-3,4-dihydro-1H-quinolin-6-yl)-4-(2-thienyl)thiazole-5-carboxamide] it is at least 100 µM; for `O=C1CCc2cc(OCCN3CCCC3c3cccc(F)c3)ccc2N1` (centres unmarked) [ALDHI-2001, 6-[2-[2-(3-fluorophenyl)pyrrolidin-1-yl]ethoxy]-3,4-dihydro-1H-quinolin-2-one] it is at least 100 µM.
For the compound `O=C1CCc2cc(OCCN3CCCC3c3ccccc3F)ccc2N1` (centres unmarked) [ALDHI-2002, 6-[2-[2-(2-fluorophenyl)pyrrolidin-1-yl]ethoxy]-3,4-dihydro-1H-quinolin-2-one], the IC50 is at least 100 µM.
In turn, `O=C1CCc2cc(OCCN3CCCC3c3ccc(F)cc3)ccc2N1` (centres unmarked) [ALDHI-2003, 6-[2-[2-(4-fluorophenyl)pyrrolidin-1-yl]ethoxy]-3,4-dihydro-1H-quinolin-2-one] registered an IC50 of 10 to 100 µM.
The figure for `O=C1CCc2cc(OCCN3CCCC3c3ccncc3)ccc2N1` (centres unmarked) [ALDHI-2004, 6-[2-[2-(4-pyridyl)pyrrolidin-1-yl]ethoxy]-3,4-dihydro-1H-quinolin-2-one] is at least 100 µM; for `O=C1CCc2cc(OCCN3CCCC3c3cccnc3)ccc2N1` (centres unmarked) [ALDHI-2005, 6-[2-[2-(3-pyridyl)pyrrolidin-1-yl]ethoxy]-3,4-dihydro-1H-quinolin-2-one] it is at least 100 µM; for `O=C1CCc2cc(OCCN3CCCC3c3ccccn3)ccc2N1` (centres unmarked) [ALDHI-2006, 6-[2-[2-(2-pyridyl)pyrrolidin-1-yl]ethoxy]-3,4-dihydro-1H-quinolin-2-one] it is at least 100 µM.
The figure for `O=C1CCc2cc(OCCN3CCC[C@@H]3c3cccc(F)c3)ccc2N1` [ALDHI-2007, 6-[2-[(2R)-2-(3-fluorophenyl)pyrrolidin-1-yl]ethoxy]-3,4-dihydro-1H-quinolin-2-one] is at least 100 µM; for `O=C1CSc2cc(OCCN3CCCC3c3cccc(F)c3)ccc2N1` (centres unmarked) [ALDHI-2008, 7-[2-[2-(3-fluorophenyl)pyrrolidin-1-yl]ethoxy]-4H-1,4-benzothiazin-3-one] it is at least 100 µM.
The figure for `O=C1COc2cc(OCCN3CCCC3c3cccc(F)c3)ccc2N1` (centres unmarked) [ALDHI-2009, 7-[2-[2-(3-fluorophenyl)pyrrolidin-1-yl]ethoxy]-4H-1,4-benzoxazin-3-one] is at least 100 µM; for `Cc1ccc(C2CCCN2CCOc2ccc3c(c2)CCC(=O)N3)cc1` (centres unmarked) [ALDHI-2010, 6-[2-[2-(p-tolyl)pyrrolidin-1-yl]ethoxy]-3,4-dihydro-1H-quinolin-2-one] it is at least 100 µM.
On to `Cc1cccc(C2CCCN2CCOc2ccc3c(c2)CCC(=O)N3)c1` (centres unmarked) [ALDHI-2011, 6-[2-[2-(m-tolyl)pyrrolidin-1-yl]ethoxy]-3,4-dihydro-1H-quinolin-2-one], for which the IC50 was at least 100 µM.
